Test results reported in PubChem BioAssay (NCI).
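Method: 48-hour compound exposure of cells in 96-well plates, five concentrations, linear interpolation of endpoints. At the TGI there is no net growth.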

Legend:
Test in all cases: growth of human tumour cells (NCI), 48 h
OVCAR-8 ovarian = tested on: OVCAR-8 ovarian
DU-145 prostate = tested on: DU-145 prostate
UO-31 renal = tested on: UO-31 renal
MCF7 breast = tested on: MCF7 breast
NCI-H23 lung = tested on: NCI-H23 lung
CAKI-1 renal = tested on: CAKI-1 renal
MDA-N = tested on: MDA-N
UACC-257 melanoma = tested on: UACC-257 melanoma
NCI-H522 lung = tested on: NCI-H522 lung
ACHN renal = tested on: ACHN renal
RXF 393 renal = tested on: RXF 393 renal
HCT-15 colon = tested on: HCT-15 colon
RPMI-8226 leukemia = tested on: RPMI-8226 leukemia
PC-3 prostate = tested on: PC-3 prostate
HL-60(TB) leukemia = tested on: HL-60(TB) leukemia
OVCAR-3 ovarian = tested on: OVCAR-3 ovarian
MDA-MB-231 breast = tested on: MDA-MB-231 breast
OVCAR-4 ovarian = tested on: OVCAR-4 ovarian
SK-OV-3 ovarian = tested on: SK-OV-3 ovarian
HOP-92 NSCLC = tested on: HOP-92 NSCLC
A549 NSCLC = tested on: A549 NSCLC
SNB-19 CNS = tested on: SNB-19 CNS
IGROV1 ovarian = tested on: IGROV1 ovarian
M14 melanoma = tested on: M14 melanoma
NCI-H226 lung = tested on: NCI-H226 lung
SK-MEL-2 melanoma = tested on: SK-MEL-2 melanoma
MALME-3M melanoma = tested on: MALME-3M melanoma
SF-268 CNS = tested on: SF-268 CNS
COLO 205 colon = tested on: COLO 205 colon
A498 renal = tested on: A498 renal
EKVX NSCLC = tested on: EKVX NSCLC
SR leukemia = tested on: SR leukemia
MOLT-4 leukemia = tested on: MOLT-4 leukemia
HCT-116 colon = tested on: HCT-116 colon
LOX IMVI melanoma = tested on: LOX IMVI melanoma
BT-549 breast = tested on: BT-549 breast
SF-539 CNS = tested on: SF-539 CNS
SK-MEL-28 melanoma = tested on: SK-MEL-28 melanoma
TK-10 renal = tested on: TK-10 renal
HT29 colon = tested on: HT29 colon
786-0 renal = tested on: 786-0 renal
K-562 leukemia = tested on: K-562 leukemia
SNB-75 CNS = tested on: SNB-75 CNS
SF-295 CNS = tested on: SF-295 CNS
NCI/ADR-RES ovarian = tested on: NCI/ADR-RES ovarian
SW-620 colon = tested on: SW-620 colon
SN12C renal = tested on: SN12C renal
HOP-62 NSCLC = tested on: HOP-62 NSCLC
HCC-2998 colon = tested on: HCC-2998 colon
U251 CNS = tested on: U251 CNS
NCI-H460 lung = tested on: NCI-H460 lung
HS 578T breast = tested on: HS 578T breast
MDA-MB-435 = tested on: MDA-MB-435
SK-MEL-5 melanoma = tested on: SK-MEL-5 melanoma
T-47D breast = tested on: T-47D breast
OVCAR-5 ovarian = tested on: OVCAR-5 ovarian
UACC-62 melanoma = tested on: UACC-62 melanoma
KM12 colon = tested on: KM12 colon
CCRF-CEM leukemia = tested on: CCRF-CEM leukemia

Measured: TGI

N#CCCN(CCC#N)CCN(CCN(CCC#N)CCC#N)CCN(CCC#N)CCC#N
not listed: UACC-62 melanoma | KM12 colon | CCRF-CEM leukemia
> 100 µM: all other assays above

CC1=CN(c2ccccc2)S2=C1c1sc3c(c1N2c1ccc(Br)cc1)CCCC3 (stereo not given)
not listed: MALME-3M melanoma | SNB-75 CNS
> 100 µM: all other assays above

O=C(O)C1[C@@H](C(=O)O)C1(Br)CBr (stereo not given in full)
not listed: MALME-3M melanoma | CCRF-CEM leukemia
> 100 µM: all other assays above
